In BindingDB's records for doi:10.1016/j.bioorg.2005.08.001 (Texas A&M University, 2005) one finds Ki data, which are given here for one compound.

In general, Ki refers to a dissociation constant, usually derived from enzyme kinetics or from competition with a known ligand.

The target of this assay is T1, Dihydroorotase (Escherichia coli (strain K12), UniProt P05020).
T1 sequence (P05020 whole entry): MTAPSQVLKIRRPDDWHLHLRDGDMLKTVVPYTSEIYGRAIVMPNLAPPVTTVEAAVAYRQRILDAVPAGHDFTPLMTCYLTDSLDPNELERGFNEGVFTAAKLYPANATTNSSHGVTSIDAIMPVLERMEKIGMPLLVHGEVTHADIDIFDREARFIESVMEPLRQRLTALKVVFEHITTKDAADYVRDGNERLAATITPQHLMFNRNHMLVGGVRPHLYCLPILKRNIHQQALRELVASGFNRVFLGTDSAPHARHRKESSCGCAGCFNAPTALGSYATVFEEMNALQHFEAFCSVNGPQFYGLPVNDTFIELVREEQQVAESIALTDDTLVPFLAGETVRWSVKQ
In words: Inhibition Assay. Conditions: pH 7. The text has this:
The DHO-catalyzed hydrolysis of dihydrooroate was monitored spectrophotoetrically at 230 and 280 nm using a SPECTRAmax (Molecular Device) plate reader.

Compound `O=C1CC(=O)N[C@H](C(=O)O)C1` [4,6-dioxo-piperidine-2-carboxylic acid, 3] had a Ki of 76 mM.
